Molecular target: hTREM2 (Homo sapiens, UniProt Q9NZC2)
Assay: Phospho-Syk AlphaScreen/AlphaLISA assay in TREM2 and DAP12 overexpressing HEK293 cells (Example A1)
Assay type: cell-based
Parameters: expressed in transfected cells
Conditions: HEK293 cells; for EC50: read-out: hTREM2 EC50
Procedure, shortened: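 Single-cell-cloned HEK293 stably overexpressing TREM2 and DAP12, plated 20,000 cells/well for 20 h, then exposed to compounds (1% DMSO) 45 min at room temperature. Lysates probed for phospho-Syk by AlphaLISA sandwich (anti-pSyk, biotinylated anti-Syk); signal normalized to percent of control (100 nM anti-TREM2 antibody vs isotype) and fitted by 4-parameter logistic.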

Sequence of hTREM2 (Q9NZC2 19-230): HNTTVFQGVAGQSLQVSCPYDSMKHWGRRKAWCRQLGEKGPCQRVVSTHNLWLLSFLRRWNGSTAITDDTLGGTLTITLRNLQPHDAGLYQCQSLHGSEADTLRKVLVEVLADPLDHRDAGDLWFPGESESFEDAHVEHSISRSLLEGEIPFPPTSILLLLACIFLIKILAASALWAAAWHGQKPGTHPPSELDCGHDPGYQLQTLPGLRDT
Sequence of hTREM2 (O43914 22-113 partner): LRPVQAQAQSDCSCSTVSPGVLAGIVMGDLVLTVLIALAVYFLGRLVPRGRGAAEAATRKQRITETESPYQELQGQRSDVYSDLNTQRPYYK

| SMILES | Emax | EC50 |
| --- | --- | --- |
| Cc1nc2cc(N3CCOC(c4noc(-c5ccccc5)n4)C3)nc(-c3ccc(Cl)cc3F)c2c(=O)n1C (centres unmarked) [Example 93, 5-(4-chloro-2-fluorophenyl)-2,3-dimethyl-7-(2-(5-phenyl-1,2,4-oxadiazol-3-yl)-4-morpholinyl)pyrido[4,3-d]pyrimidin-4(3H)-one] | +++ (Emax>200 and ≤300) | 500 to 3000 nM |
| Cc1nc2cc(N3CCOC(c4ccnc(C(F)(F)F)c4)C3)nc(-c3ccc(Cl)cc3F)c2c(=O)n1C (centres unmarked) [Example 94, 5-(4-chloro-2-fluorophenyl)-2,3-dimethyl-7-(2-(2-(trifluoromethyl)-4-pyridinyl)-4-morpholinyl)pyrido[4,3-d]pyrimidin-4(3H)-one] | +++ (Emax>200 and ≤300) | < 50 nM |
| Cc1nc2cc(N3CCc4cnccc4C3)nc(-c3ccc(Cl)cc3F)c2c(=O)n1C [Example 101, 5-(4-chloro-2-fluorophenyl)-7-(3,4-dihydro-2,6-naphthyridin-2(1H)-yl)-2,3-dimethylpyrido[4,3-d]pyrimidin-4(3H)-one] | +++ (Emax>200 and ≤300) | 500 to 3000 nM |
| Cc1nc2cc(N3CCc4ccncc4C3)nc(-c3ccc(Cl)cc3F)c2c(=O)n1C [Example 102, 5-(4-chloro-2-fluorophenyl)-7-(3,4-dihydro-2,7-naphthyridin-2(1H)-yl)-2,3-dimethylpyrido[4,3-d]pyrimidin-4(3H)-one] | +++ (Emax>200 and ≤300) | 50 to 500 nM |
| Cc1nc2cc(N3CCCC(C)(c4ccccc4)C3)nc(-c3ccc(Cl)cc3F)c2c(=O)n1C (centres unmarked) [Example 103, 5-(4-chloro-2-fluorophenyl)-2,3-dimethyl-7-(3-methyl-3-phenyl-1-piperidinyl)pyrido[4,3-d]pyrimidin-4(3H)-one] | + (Emax>45 and ≤100) | 3000 to 100000 nM |
| Cc1nc2cc(N3CCc4cnn(C)c4C3)nc(-c3ccc(Cl)cc3F)c2c(=O)n1C [Example 104, 5-(4-chloro-2-fluorophenyl)-2,3-dimethyl-7-(1-methyl-1,4,5,7-tetrahydro-6H-pyrazolo[3,4-c]pyridin-6-yl)pyrido[4,3-d]pyrimidin-4(3H)-one] | ++++ (Emax>300) | 50 to 500 nM |
| Cc1nc2cc(N3CCCC(c4cnco4)C3)nc(-c3ccc(Cl)cc3F)c2c(=O)n1C (centres unmarked) [Example 105, 5-(4-chloro-2-fluorophenyl)-2,3-dimethyl-7-(3-(1,3-oxazol-5-yl)-1-piperidinyl)pyrido[4,3-d]pyrimidin-4(3H)-one] | ++++ (Emax>300) | 50 to 500 nM |
| Cc1nc2cc(N3CCCC(C4CNC(=O)C4)C3)nc(-c3ccc(Cl)cc3F)c2c(=O)n1C (centres unmarked) [Example 106, 5-(4-chloro-2-fluorophenyl)-2,3-dimethyl-7-(3-(5-oxo-3-pyrrolidinyl)-1-piperidinyl)-pyrido[4,3-d]pyrimidin-4(3H)-one] | +++ (Emax>200 and ≤300) | 50 to 500 nM |
| Cc1nc2cc(N3CCCC(N(C)C)C3)nc(-c3ccc(Cl)cc3F)c2c(=O)n1C (centres unmarked) [Example 109, 5-(4-chloro-2-fluoro-phenyl)-7-(3-(dimethylamino)-1-piperidinyl)-2,3-dimethylpyrido[4,3-d]pyrimidin-4(3H)-one] | ++++ (Emax>300) | 500 to 3000 nM |
| Cc1nc2cc(N3CCCC(N4CCC4)C3)nc(-c3ccc(Cl)cc3F)c2c(=O)n1C (centres unmarked) [Example 110, 7-(3-(1-azetidinyl)-1-piperidinyl)-5-(4-chloro-2-fluorophenyl)-2,3-dimethylpyrido[4,3-d]pyrimidin-4(3H)-one] | ++++ (Emax>300) | 500 to 3000 nM |
| Cc1nc2cc(N3CCc4ccnc(Cl)c4C3)nc(-c3ccc(Cl)cc3F)c2c(=O)n1C [Example 115, 7-(8-chloro-3,4-dihydro-2,7-naphthyridin-2(1H)-yl)-5-(4-chloro-2-fluorophenyl)-2,3-dimethylpyrido[4,3-d]pyrimidin-4(3H)-one] | +++ (Emax>200 and ≤300) | 50 to 500 nM |
| COc1ncnc2c1CN(c1cc3nc(C)n(C)c(=O)c3c(-c3ccc(Cl)cc3F)n1)CC2 [Example 116, 5′-(4-chloro-2-fluorophenyl)-4-methoxy-2′,3′-dimethyl-7,8-dihydro-5H-[6,7′-bipyrido[4,3-d]pyrimidin]-4′(3′H)-one] | ++ (Emax>100 and ≤200) | 50 to 500 nM |
| Cc1nc2cc(N3CCC(C(F)(F)F)C3)nc(-c3ccc(Cl)cc3F)c2c(=O)n1C (centres unmarked) [Example 119, 5-(4-chloro-2-fluorophenyl)-2,3-dimethyl-7-(3-(trifluoromethyl)-1-pyrrolidinyl)pyrido[4,3-d]pyrimidin-4(3H)-one] | +++ (Emax>200 and ≤300) | 50 to 500 nM |
| Cc1nc2cc(N3CCC(C(F)F)C3)nc(-c3ccc(Cl)cc3F)c2c(=O)n1C (centres unmarked) [Example 120, 5-(4-chloro-2-fluorophenyl)-7-(3-(difluoromethyl)-1-pyrrolidin-yl)-2,3-dimethylpyrido[4,3-d]pyrimidin-4(3H)-one] | +++ (Emax>200 and ≤300) | 50 to 500 nM |
| Cc1nc2cc(N3CCO[C@@H](c4cnn(C(C)C)c4)C3)nc(-c3ccc(Cl)cc3F)c2c(=O)n1C [Example 123, 5-(4-chloro-2-fluorophenyl)-2,3-dimethyl-7-((2S)-2-(1-(2-propanyl)-1H-pyrazol-4-yl)-4-morpholinyl)pyrido[4,3-d]pyrimidin-4(3H)-one] | ++++ (Emax>300) | < 50 nM |

Results, then the compound that gave them:

| Emax | EC50 | SMILES |
| --- | --- | --- |
| ++++ (Emax>300) | 50 to 500 nM | Cc1nc2cc(N3CCC(c4cccnc4)C3)nc(-c3ccc(Cl)cc3F)c2c(=O)n1C (centres unmarked) [Example 121, 5-(4-chloro-2-fluorophenyl)-2,3-dimethyl-7-(3-(3-pyridinyl)-1-pyrrolidinyl)pyrido[4,3-d]pyrimidin-4(3H)-one] |
| + (Emax>45 and ≤100) | 3000 to 100000 nM | Cc1nc2cc(N3CCC(c4nccn4C)C3)nc(-c3ccc(Cl)cc3F)c2c(=O)n1C (centres unmarked) [Example 122, 5-(4-chloro-2-fluorophenyl)-2,3-dimethyl-7-(3-(1-methyl-1H-imidazol-2-yl)-1-pyrrolidinyl)pyrido[4,3-d]pyrimidin-4(3H)-one] |
| ++++ (Emax>300) | < 50 nM | Cc1nc2cc(N3CCO[C@@H](c4cnn(C5CCC5)c4)C3)nc(-c3ccc(Cl)cc3F)c2c(=O)n1C [Example 124, 5-(4-chloro-2-fluorophenyl)-7-((2S)-2-(1-cyclobutyl-1H-pyrazol-4-yl)-4-morpholinyl)-2,3-dimethylpyrido[4,3-d]pyrimidin-4(3H)-one] |
| ++++ (Emax>300) | < 50 nM | Cc1nc2cc(N3CCO[C@@H](c4cnn(C5COC5)c4)C3)nc(-c3ccc(Cl)cc3F)c2c(=O)n1C [Example 125, 5-(4-chloro-2-fluorophenyl)-2,3-dimethyl-7-((2S)-2-(1-(3-oxetanyl)-1H-pyrazol-4-yl)-4-morpholinyl)pyrido[4,3-d]pyrimidin-4(3H)-one] |
| +++ (Emax>200 and ≤300) | < 50 nM | Cc1nc2cc(N3CCO[C@@H](c4cnn(CC(F)(F)F)c4)C3)nc(-c3ccc(Cl)cc3F)c2c(=O)n1C [Example 126, 5-(4-chloro-2-fluorophenyl)-2,3-dimethyl-7-((2S)-2-(1-(2,2,2-trifluoroethyl)-1H-pyrazol-4-yl)-4-morpholinyl)pyrido[4,3-d]pyrimidin-4(3H)-one] |
| ++++ (Emax>300) | 50 to 500 nM | COCCn1cc([C@H]2CN(c3cc4nc(C)n(C)c(=O)c4c(-c4ccc(Cl)cc4F)n3)CCO2)cn1 [Example 127, 5-(4-chloro-2-fluorophenyl)-7-((2S)-2-(1-(2-methoxyethyl)-1H-pyrazol-4-yl)-4-morpholinyl)-2,3-dimethylpyrido[4,3-d]pyrimidin-4(3H)-one] |
| +++ (Emax>200 and ≤300) | < 50 nM | Cc1nc2cc(N3CCO[C@@H](c4cnn(CCF)c4)C3)nc(-c3ccc(Cl)cc3F)c2c(=O)n1C [Example 128, 5-(4-chloro-2-fluorophenyl)-7-((2S)-2-(1-(2-fluoroethyl)-1H-pyrazol-4-yl)-4-morpholinyl)-2,3-dimethylpyrido[4,3-d]pyrimidin-4(3H)-one] |
| +++ (Emax>200 and ≤300) | < 50 nM | Cc1nc2cc(N3CCO[C@@H](c4cnn(C(C)F)c4)C3)nc(-c3ccc(Cl)cc3F)c2c(=O)n1C (stereo partly drawn) [Example 129, 5-(4-chloro-2-fluorophenyl)-7-((2S)-2-(1-(1-fluoroethyl)-1H-pyrazol-4-yl)-4-morpholinyl)-2,3-dimethylpyrido[4,3-d]pyrimidin-4(3H)-one] |
| – | 50 to 500 nM | Cc1nc2cc(N3CCO[C@@H](c4cnn(C(F)CO)c4)C3)nc(-c3ccc(Cl)cc3F)c2c(=O)n1C (stereo partly drawn) [Example 130, 5-(4-chloro-2-fluorophenyl)-7-((2S)-2-(1-(1-fluoro-2-hydroxyethyl)-1H-pyrazol-4-yl)-4-morpholinyl)-2,3-dimethylpyrido[4,3-d]pyrimidin-4(3H)-one] |
| +++ (Emax>200 and ≤300) | < 50 nM | Cc1nc2cc(N3CCO[C@@H](c4cnn(C5CC(F)(F)C5)c4)C3)nc(-c3ccc(Cl)cc3F)c2c(=O)n1C [Example 131, 5-(4-chloro-2-fluorophenyl)-7-((2S)-2-(1-(3,3-difluorocyclobutyl)-1H-pyrazol-4-yl)-4-morpholinyl)-2,3-dimethylpyrido[4,3-d]pyrimidin-4(3H)-one] |
| ++++ (Emax>300) | 50 to 500 nM | Cc1nc2cc(N3CCO[C@@H](c4cnn(CCN(C)C)c4)C3)nc(-c3ccc(Cl)cc3F)c2c(=O)n1C [Example 132, 5-(4-chloro-2-fluorophenyl)-7-((2S)-2-(1-(2-(dimethylamino)ethyl)-1H-pyrazol-4-yl)-4-morpholinyl)-2,3-dimethylpyrido[4,3-d]pyrimidin-4(3H)-one] |
| +++ (Emax>200 and ≤300) | < 50 nM | Cc1nc2cc(N3CCO[C@@H](c4cnn(C(CF)CF)c4)C3)nc(-c3ccc(Cl)cc3F)c2c(=O)n1C [Example 133, 5-(4-chloro-2-fluorophenyl)-7-((2S)-2-(1-(1,3-difluoro-2-propanyl)-1H-pyrazol-4-yl)-4-morpholinyl)-2,3-dimethylpyrido[4,3-d]pyrimidin-4(3H)-one] |

Source: patent US20250388574A1, “HETEROCYCLIC COMPOUNDS AS TRIGGERING RECEPTOR EXPRESSED ON MYELOID CELLS 2 AGONISTS AND METHODS OF USE” (AMGEN INC., priority 2020, published 2025)
